Data from the supplement of paper PMC13380429.

Legend:
Conditions in all cases: 72 h
[1] = tested on: Caco-2; experiment: drug sensitivity score (DSS) for viability; higher = more toxic; extreme values may be limits of the assay
[2] = tested on: U2OS; experiment: as above
[3] = tested on: HepG2; experiment: as above
[4] = tested on: Calu-3; experiment: as above
[5] = tested on: Vero E6; experiment: as above
[6] = tested on: Caco-2; experiment: relative viability EC50 (midpoint between 100% and the lowest measured viability); higher = less toxic
[7] = tested on: U2OS; experiment: as above
[8] = tested on: HepG2; experiment: as above
[9] = tested on: Calu-3; experiment: as above
[10] = tested on: Vero E6; experiment: as above
[11] = tested on: Caco-2; experiment: cell viability relative to DMSO; higher = less toxic
[12] = tested on: U2OS; experiment: as above
[13] = tested on: HepG2; experiment: as above
[14] = tested on: Calu-3; experiment: as above
[15] = tested on: Vero E6; experiment: as above

Structure (SMILES)	drug sensitivity score [1]	drug sensitivity score [2]	drug sensitivity score [3]	drug sensitivity score [4]	drug sensitivity score [5]	relative viability EC50 [6] [µM]	relative viability EC50 [7] [µM]	relative viability EC50 [8] [µM]	relative viability EC50 [9] [µM]	relative viability EC50 [10] [µM]	cell viability ([11]; 1 nM) [%]	cell viability ([11]; 10 nM) [%]	cell viability ([11]; 100 nM) [%]	cell viability ([11]; 1000 nM) [%]	cell viability ([11]; 10000 nM) [%]	cell viability ([12]; 1 nM) [%]	cell viability ([12]; 10 nM) [%]	cell viability ([12]; 100 nM) [%]	cell viability ([12]; 1000 nM) [%]	cell viability ([12]; 10000 nM) [%]	cell viability ([13]; 1 nM) [%]	cell viability ([13]; 10 nM) [%]	cell viability ([13]; 100 nM) [%]	cell viability ([13]; 1000 nM) [%]	cell viability ([13]; 10000 nM) [%]	cell viability ([14]; 1 nM) [%]	cell viability ([14]; 10 nM) [%]	cell viability ([14]; 100 nM) [%]	cell viability ([14]; 1000 nM) [%]	cell viability ([14]; 10000 nM) [%]	cell viability ([15]; 1 nM) [%]	cell viability ([15]; 10 nM) [%]	cell viability ([15]; 100 nM) [%]	cell viability ([15]; 1000 nM) [%]	cell viability ([15]; 10000 nM) [%]
C=C1/C(=C\C=C2/CCC[C@]3(C)[C@@H]([C@H](C)CCCC(O)(C(F)(F)F)C(F)(F)F)CC[C@@H]23)C[C@@H](O)C[C@@H]1O [falecalcitriol]	0	0	0	0	0	> 10	> 10	> 10	> 10	> 10	96.2	96.1	90.6	95.6	92.6	100	94.9	98.5	92.7	93.1	98.1	97	94.1	102	92.9	122	99.3	95.7	99.7	98.2	92.4	96.2	85.8	94.9	104
CSc1ccc(OCc2ncc([N+](=O)[O-])n2C)cc1 [fexinidazole]	0	0	0	0	0	> 10	> 10	> 10	> 10	> 10	106	104	105	96.7	96.9	98.3	103	99.7	97.1	98.5	92.7	85.9	104	105	88.4	100	98.5	78.6	101	97.9	103	101	99.7	101	97
COc1ccc(Cl)cc1[C@]1(F)C(=O)Nc2cc(C(F)(F)F)ccc21 [flindokalner]	0	0	0	0	0	> 10	> 10	> 10	> 10	> 10	95.2	102	97.6	101	88.7	96.9	102	97.3	97.8	95.2	103	96.3	103	100	95.2	103	91.3	96.3	96.9	93.9	97.7	96.1	98.8	95.6	101
C#C[C@]1(O)CC[C@H]2[C@@H]3CCC4=CC(=O)CCC4=C3C=C[C@@]21CC [gestrinone]	0	0	0	0	0	> 10	> 10	> 10	> 10	> 10	107	116	86.1	102	101	94.7	95.8	91.6	99.9	93.9	96.7	103	101	103	90.6	106	93.3	99.9	97.8	94.1	96.6	97.2	101	89.3	101
N[C@H](C(=O)O)c1cc(O)no1 [ibotenic-acid]	0	0	0	0	0	> 10	> 10	> 10	> 10	> 10	92.9	94.2	93.6	97.2	96.5	97.8	97.5	96.6	102	92.4	91.3	104	95.1	93.3	93.9	93	93.7	105	93.6	94	102	101	99.1	99.4	100
CC[C@H](Nc1ncnc2[nH]cnc12)c1nc2cccc(F)c2c(=O)n1-c1ccccc1 [idelalisib]	0.3	0	0.1	0	0.2	> 10	> 10	> 10	> 10	> 10	95.4	98.1	96.6	101	83.7	91.2	101	94.1	95.6	93.9	104	94	108	97.3	88.5	106	104	85.8	103	89.5	99	95	96	87.5	89.5
CC1Cc2ccccc2N1NC(=O)c1ccc(Cl)c(S(N)(=O)=O)c1 (stereo not given) [indapamide]	0	0	0	0	0	> 10	> 10	> 10	> 10	> 10	94.8	96	94.3	94.8	93.3	101	96.9	97.9	96.7	98.3	95.5	95.7	94.2	99.5	97.1	105	110	105	96.7	96	100	100	103	97.4	92.9
O=[N+]([O-])O[C@H]1CO[C@H]2[C@@H]1OC[C@H]2O[N+](=O)[O-] [isosorbide-dinitrate]	0	0	0	0	0	> 10	> 10	> 10	> 10	> 10	99.1	95	102	90.5	98.7	100	96.1	100	99.8	99	90.6	117	102	113	101	99.4	101	101	101	107	94.2	102	92.5	97.1	108
COc1ccc(C(=O)NCc2ccc(OCCN(C)C)cc2)cc1OC [itopride]	0	0	0	0	0	> 10	> 10	> 10	> 10	> 10	99	96.5	108	100	89.5	102	101	99.1	103	95.1	97.4	96.2	87.2	90.3	107	102	103	97.1	103	91.2	99.9	102	99.8	101	96.7
O=C(C[S+]([O-])Cc1ccco1)NC/C=C\COc1cc(CN2CCCCC2)ccn1 (stereo not given) [lafutidine]	0	0	0	0	0	> 10	> 10	> 10	> 10	> 10	91.5	91.3	97.6	97	90.6	99.3	100	96.9	102	94.8	98.3	95.4	97.9	105	104	91.4	106	95.6	93.2	92.3	101	100	100	93.5	96.1
C[C@@H]1CN([C@H]2CC[C@](C#N)(c3ccc(F)cc3)CC2)CC[C@]1(C(=O)O)c1ccccc1 [levocabastine]	0	0	0	0	0	> 10	> 10	> 10	> 10	> 10	103	104	108	99.5	99.3	97.8	98	104	98	105	91.5	99.6	93.6	93.7	94.2	94.2	99.3	109	99.4	96.2	102	106	100	104	100
CCN(CC)C(=O)N[C@H]1C=C2c3cccc4[nH]cc(c34)C[C@H]2N(C)C1 [lisuride]	0	0	0	0	0	> 10	> 10	> 10	> 10	> 10	102	81.3	101	115	100	99.9	100	100	93.4	96	87.7	90	101	97.4	96.3	96	88.6	104	85	105	97.7	106	93.5	102	106
CCOC(=O)c1c(C)n(C)c2ccc(O)cc12 [mecarbinate]	0	0	0	0	0	> 10	> 10	> 10	> 10	> 10	95.1	98.9	96	103	105	97.1	102	94.6	100	107	107	104	105	97.8	107	101	101	98.6	90.6	106	99.7	98.4	100	92.9	109
CC(C)C(=O)OC[C@H]1O[C@@H](n2ccc(N)nc2=O)[C@](C)(F)[C@@H]1OC(=O)C(C)C [mericitabine]	0	0	0	0	0	> 10	> 10	> 10	> 10	> 10	93.9	86.9	96.3	91.1	102	97.1	94	98.6	97	97.4	89.3	99.3	94.1	102	91.6	110	88.1	108	109	106	92.5	97.6	99.3	93.6	91.5
